{"source": "patent US8357659B2", "about": "“Method of treating pain or itching with APETx2 peptide toxin” (priority 2008, dated 2013)", "origin": "cited, not measured here", "key": {"heteromer ASIC2b+3": {"molecular_target": "T1, heteromer ASIC2b+3 (Rattus norvegicus, UniProt O35240+Q62962)", "T1 sequence (Q62962 1-563 isoform Q62962-2)": "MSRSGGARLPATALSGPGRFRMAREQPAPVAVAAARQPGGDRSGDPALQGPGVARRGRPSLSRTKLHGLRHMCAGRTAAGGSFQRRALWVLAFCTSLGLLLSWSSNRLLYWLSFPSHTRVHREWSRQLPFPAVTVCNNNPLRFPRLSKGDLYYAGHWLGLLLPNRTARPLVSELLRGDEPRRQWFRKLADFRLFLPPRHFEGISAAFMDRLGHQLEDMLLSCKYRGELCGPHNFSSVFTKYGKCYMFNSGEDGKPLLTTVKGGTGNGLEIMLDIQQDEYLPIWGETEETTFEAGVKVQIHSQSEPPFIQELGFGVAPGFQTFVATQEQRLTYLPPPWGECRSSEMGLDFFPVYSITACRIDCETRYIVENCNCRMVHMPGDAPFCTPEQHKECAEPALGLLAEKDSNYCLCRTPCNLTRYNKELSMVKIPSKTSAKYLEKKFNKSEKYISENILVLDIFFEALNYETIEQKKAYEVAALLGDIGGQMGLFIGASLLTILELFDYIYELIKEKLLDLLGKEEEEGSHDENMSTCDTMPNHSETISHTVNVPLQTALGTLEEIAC", "T1 sequence (O35240 1-533)": "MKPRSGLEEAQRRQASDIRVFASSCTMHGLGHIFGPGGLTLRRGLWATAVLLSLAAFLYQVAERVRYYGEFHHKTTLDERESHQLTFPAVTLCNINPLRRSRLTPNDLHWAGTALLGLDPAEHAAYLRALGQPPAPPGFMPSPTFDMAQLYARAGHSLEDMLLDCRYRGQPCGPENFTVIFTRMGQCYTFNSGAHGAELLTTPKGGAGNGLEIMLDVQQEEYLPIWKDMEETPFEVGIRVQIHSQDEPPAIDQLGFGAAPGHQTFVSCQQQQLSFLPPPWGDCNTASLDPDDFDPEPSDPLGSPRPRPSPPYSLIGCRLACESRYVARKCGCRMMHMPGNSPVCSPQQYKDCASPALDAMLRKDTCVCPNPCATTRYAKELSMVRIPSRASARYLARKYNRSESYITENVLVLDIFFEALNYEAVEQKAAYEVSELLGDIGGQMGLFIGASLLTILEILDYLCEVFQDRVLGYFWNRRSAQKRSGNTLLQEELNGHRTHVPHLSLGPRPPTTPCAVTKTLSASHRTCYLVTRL", "settings": "cited from earlier work"}, "heteromer ASIC1b+3": {"molecular_target": "T2, heteromer ASIC1b+3 (Rattus norvegicus, UniProt O35240+P55926)", "T2 sequence (P55926 1-559 isoform P55926-3)": "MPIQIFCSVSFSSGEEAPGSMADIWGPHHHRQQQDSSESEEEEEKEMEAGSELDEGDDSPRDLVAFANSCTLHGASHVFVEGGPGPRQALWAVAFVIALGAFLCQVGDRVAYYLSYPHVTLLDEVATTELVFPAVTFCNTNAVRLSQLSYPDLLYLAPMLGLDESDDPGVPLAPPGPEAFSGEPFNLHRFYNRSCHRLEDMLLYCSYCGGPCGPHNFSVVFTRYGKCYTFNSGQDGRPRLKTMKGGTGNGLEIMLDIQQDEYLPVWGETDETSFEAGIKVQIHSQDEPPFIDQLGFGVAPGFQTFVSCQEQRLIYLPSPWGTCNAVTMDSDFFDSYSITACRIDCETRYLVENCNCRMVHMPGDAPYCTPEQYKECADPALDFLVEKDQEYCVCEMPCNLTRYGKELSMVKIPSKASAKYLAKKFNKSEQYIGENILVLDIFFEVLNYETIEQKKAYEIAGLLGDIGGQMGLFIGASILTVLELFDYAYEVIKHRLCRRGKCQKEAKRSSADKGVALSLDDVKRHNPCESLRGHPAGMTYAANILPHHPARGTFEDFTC", "T2 sequence (O35240 1-533)": "T1 sequence (O35240 1-533)", "settings": "relative to ASIC3 / ASIC2b+3; cited from earlier work"}}}
{"substance": "peptide of 42 amino acids (SEQ ID NO: 3), three disulphide bonds, from sea anemone Anthopleura elegantissima; blocks ASIC3 [APETx2]", "values": [{"measurement": "effect on the current of the heteromer ASIC2b+3", "setting": "heteromer ASIC2b+3", "result": "inhibits"}, {"measurement": "affinity for the heteromer ASIC1b+3", "setting": "heteromer ASIC1b+3", "result": "less affinity"}]}
